Test results as given in patent publication US10316008B2, “KCNQ potassium channel agonist, and preparation method therefor and use thereof” (SHANGHAI INSTITUTE OF MATERIA MEDICA, CHINESE ACADEMY OF …, priority 2014, dated 2019).
“Also recorded” adds a separate entry of the source. Structures can show the parent of a compound that is named as a salt. Where two headings read alike, the source gives them in different places.

Assays:
[1] = system: convulsive mice induce by MES; assay: MES (maximum electroshock) induced convulsion model, oral perfusion; assay type: in vivo, KM mice; details: for efficacy against MES compared with RTG / ED50: mice; for ED50: Mus musculus, 0.5 h, oral perfusion, MES 30 mins after administration, read-out: ED50 (50% effective dose); for protective effect on convulsive mice induce by MES: orally administered
Description: YLS-9A model physiological pharmaceutical electronic stimulator was used in the experiment to induce convulsion of mice, and specific parameters were set as follows: configuration 8, stimulating voltage: 160V, period of stimulation: 5.4 sec. Healthy KM mice (SPF level, male, body weight: 18 to 22 g) were selected for the experiment. After the ear tip of the mice was sufficiently wetted with physiological saline, the mice was electrically stimulated once with ear clip electrode, and tonic hind-limb seizure was deemed as indication of convulsion. The mice were screened one day before the experiment to weed out the dead mice and the ones without generalized tonic seizure. The qualified mice were caged randomly with access to water at liberty. Before the experiment started, the mice were fasted for 8 h.
The compounds to be tested were freshly formulated on the day of experiment. RTG hydrochloride was dissolved with ultrapure water to obtain a solution with desired concentration. K41.HCl and K43.HCl were formulated with 5% DMSO+95% of 1% Tween80, that is, a proper amount of the compound to be tested was weighted and, first, sufficiently dissolved in 5% DMSO, and then added with a desire volume of 1% Tween80 to be sufficiently suspended to form a suspension with a certain drug concentration. The mice screened one day before were randomly grouped with each group having 10 mice, marked, weighted and then administered with the compound to be tested or solvent (5% DMSO+95% (1% Tween 80)) by oral perfusion with administered volume of 0.2 ml/10 g. The dose range for each compound was 1 to 56 mg/kg for RTG, 1 to 40 mg/kg for K41.HCl, and 0.5 to 4 mg/kg for K43.HCl. 30 mins after administration, MES experiment was performed and the experimental parameters were the same as the above. The number of mice with generalized tonic-clonic convulsion in each group was recorded, the protection rate of each of the compounds to be tested on convulsive mice induce by MES was calculated and dose-response curve for each compound was plotted. The dose-response curve for each compound was obtained according to the analysis of Graphpad Prism 5 software, as shown in FIG. 3.

[2] = system: motor coordination ability of mice; assay: Rotarod experiment, motor coordination ability (acute neurotoxicity); assay type: in vivo, KM mice; details: for P.I (Protective index)=TD50/ED50: TD50 Rotarod / ED50 MES
Description: (§1) YLS-4C Rotarod system was used in the experiment, wherein the diameter of the rod was 3 cm and the rotate speed was set at 6 rpm. Healthy KM mice (SPF level) were selected, wherein male and female were equal, the body weight was 18 to 22 g. One day before experiment, the mice were place on the rotarod for training and screening. The tail tip of mice was held to make them creep on the rotarod during the training. […] The mice that jumped on the rotarod or griped the rotarod were weed out. In addition, three time periods were set with 1 min for each. […] The qualified mice were randomly caged according to the gender, and allowed to eat and drink freely.
(§2) On the day of the experiment, each compound to be tested was freshly formulated by the same method as described in MES experiment. If the compound was not sufficiently suspended, the suspension was further mixed by ultrasonication for 20 min so as to make the compound sufficiently suspended. […] 30 mins after administration, Rotarod experiment was performed and the experiment parameters were the same as the above. The number of mice that fell off from the rorarod was recorded, and the influence of each compound on motor coordination ability of mice was analyzed. The curve for dose of each compound verse motor deficit (percentage) of mice for each compound was obtained according to the analysis of Graphpad Prism 5 software and was shown in FIG. 4.

[3] = Pharmacokinetics and distribution in brain tissue in mice; assay type: in vivo, ICR mice; details: for Kp: brain/plasma, read-out: AUC0-t ratio (brain/plasma); for Kp / Cmax / Tmax / half-life / MRT inf / AUC(0-inf) / AUC0-t / clearance / Vd / AUC0-∞: mice; for MRT inf: read-out: MRT0-∞; for Vd: read-out: Vss; for bioavailability: oral, ICR mice, intragastric perfusion 5 mg/kg vs intravenous 2 mg/kg, read-out: F (oral bioavailability)
Description: K43.HCl was formulated to a 0.5 mg/ml solution for intragastric perfusion by using 5% DMSO/5% Tween80/[…] physiological saline; to a 0.2 mg/ml solution for intravenous injection by diluting the above solution for intragastric perfusion with physical saline containing 1% Tween 80.
84 healthy ICR mice (male, body weight, 18-20 g) were fasted for 8 h with access to water at liberty before the experiment. The mice were fed at the same time 2 h after administration of the compound.
After administration by intragastric perfusion, mice were sacrificed by cutting abdominal aorta at the time points set as the above with 3 mice for each time point. 0.5 mL of whole blood was collected for each animal, placed into a heparinized test tube and subjected to centrifugation at 11000 rpm for 5 min to separate plasma, which was then cryopreserved in a −20° C. refrigerator. After the animal was sacrificed, its whole brain was collected, washed with ice-cooled physiological saline to remove residual blood, absorbed to dryness, labeled and cryopreserved in a −20° C. refrigerator. After administration by intravenous injection, 0.5 mL of venous blood was collected from venous plexus behind eyeball, placed into a heparinized test tube and subjected to centrifugation at 11000 rpm for 5 min to separate plasma, which was then cryopreserved in a −20° C. refrigerator. The concentration of each compound in plasma and brain tissue was determined by LC-MS/MS.
Pharmacokinetic parameters after administration were calculated according to the obtained data of plasma concentration, using the non-compartmental model of Phoenix 1.3 software (Pharsight Co., USA).

[4] = Rotarod experiment, motor coordination ability (acute neurotoxicity); assay type: in vivo, KM mice; details: both sexes, KM, mouse, in vivo; mice, oral perfusion, Rotarod 30 mins after administration; read-out: TD50 (50% acute neurotoxicity dose)
Description: as §1, §2

[5] = male, ICR, mouse, po, intragastric perfusion 5 mg/kg
[6] = male, ICR, mouse, po, intragastric perfusion 5 mg/kg, brain
[7] = male, ICR, mouse, po, intragastric perfusion 5 mg/kg, plasma
[8] = male, ICR, mouse, po, intragastric perfusion 5 mg/kg, plasma, read-out: AUC0-t
[9] = male, ICR, mouse, intravenous injection 2 mg/kg, plasma
[10] = male, ICR, mouse, intravenous injection 2 mg/kg, plasma, read-out: AUC0-t
[11] = intragastric perfusion 5 mg/kg, brain

Row | Structure (SMILES) | neurotoxicity compared with RTG [2] | Kp [3, 5] | ED50 [1] [mg/kg] | protective effect on convulsive mice induce by MES [1] | TD50 at 30 min [4] [mg/kg] | P.I (Protective index)=TD50/ED50 [2] | Cmax [3, 6] [ng/g] | Tmax [3, 6] [min] | half-life [3, 6] [min] | MRT inf [3, 6] [min] | AUC(0-inf) [3, 7] [ng·h/mL] | Cmax [3, 7] [ng/mL] | Tmax [3, 7] [min] | half-life [3, 7] [min] | AUC0-t [3, 8] [ng·h/mL] | MRT inf [3, 7] [min] | AUC(0-inf) [3, 9] [ng·h/mL] | clearance [3, 9] [mL/min/kg] | half-life [3, 9] [min] | AUC0-t [3, 10] [ng·h/mL] | further results
1 | C#CCN(Cc1ccc(F)cc1)c1cc(C)c(NC(=O)OC)c(C)c1 [Compound K43, methyl 4-(N-parafluorobenzyl-N-propargyl-amino)-2,6-dimethylphenylaminoformate] | weaker neurotoxicity than RTG | ≥ 7 | – | – | – | – | – | – | – | – | – | – | – | – | – | – | – | – | – | – | efficacy against MES compared with RTG [1]: higher than that of RTG; also recorded: superior to that of RTG
2 | C#CCN(Cc1ccc(F)cc1)c1cc(C)c(NC(=O)OC)c(C)c1.Cl [K43•HCl, methyl 4-(N-parafluorobenzyl-N-propargyl-amino)-2,6-dimethylphenylaminoformate hydrochloride] | – | 7.2 | 1.6 | dose dependent protective effect | 152 | 95.25 | 1430 | 15 | 63.6 | 77.4 | 189 | 350 | 15 | 37.2 | 184 | 56.4 | 334 | 100 | 24 | 326 | MRT inf [3, 9]: 25.8 min; Vd [3, 9]: 2.61 L/kg; bioavailability ([3]; male, mouse, plasma): 22.5%; AUC0-t [3, 11]: 1329 ng·h/g; AUC0-∞ [3, 11]: 1346 ng·h/g
3 | C#CCN(Cc1ccc(F)cc1)c1ccc(NC(=O)OC)c(C)c1 [K41•HCl] | weaker neurotoxicity than RTG | 2.6 | 4.8 | dose dependent protective effect | 103 | 21.54 | 1470 | 15 | 37.8 | 66 | 654 | 606 | 15 | 38.4 | 646 | 62.4 | 294 | 114 | 29.4 | 281 | efficacy against MES compared with RTG ([1]; listed as K31): higher than that of RTG; efficacy against MES compared with RTG ([1]; listed as k41): superior to that of RTG; MRT inf [3, 9]: 27 min; Vd [3, 9]: 3.04 L/kg; bioavailability ([3]; male, mouse, plasma): 91.9%; AUC0-t [3, 11]: 1680 ng·h/g; AUC0-∞ [3, 11]: 1684 ng·h/g
